pIC50: −log10 of the molar value.
Tested on: 616215-338-R-J1-PDC spheroids with HUVEC/MSC, viability
Assay: Anticancer human tumor 616215-338-R-J1-PDC patient-derived colon adenocarcinoma cell line growth inhibition [PI3K]
Details: for pIC50: curve of first compound; for viability, T/C: stronger effect = lower value
Summary of the method: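 Combination activity was assessed by viability in multicellular tumor spheroids carrying HUVEC and MSC components. Agents were tested with PI3K inhibitors from a Cmax-based top dose (or 10 microM) downward in half-log increments.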

[1] = second compound 0.00316 µM, first compound 0.000316 µM
[2] = second compound 0.00316 µM, first compound 0.001 µM
[3] = second compound 0.00316 µM, first compound 0.00316 µM
[4] = second compound 0.00316 µM, first compound 0.01 µM
[5] = second compound 0.00316 µM, first compound 0.0316 µM
[6] = second compound 0.00316 µM, first compound 0.1 µM
[7] = second compound 0.01 µM, first compound 0.000316 µM
[8] = second compound 0.01 µM, first compound 0.001 µM
[9] = second compound 0.01 µM, first compound 0.00316 µM
[10] = second compound 0.01 µM, first compound 0.01 µM
[11] = second compound 0.01 µM, first compound 0.0316 µM
[12] = second compound 0.01 µM, first compound 0.1 µM
[13] = second compound 0.0316 µM, first compound 0.000316 µM
[14] = second compound 0.0316 µM, first compound 0.001 µM
[15] = second compound 0.0316 µM, first compound 0.00316 µM
[16] = second compound 0.0316 µM, first compound 0.01 µM
[17] = second compound 0.0316 µM, first compound 0.0316 µM
[18] = second compound 0.0316 µM, first compound 0.1 µM
[19] = second compound 0.1 µM, first compound 0.000316 µM
[20] = second compound 0.1 µM, first compound 0.001 µM
[21] = second compound 0.1 µM, first compound 0.00316 µM
[22] = second compound 0.1 µM, first compound 0.01 µM
[23] = second compound 0.1 µM, first compound 0.0316 µM
[24] = second compound 0.1 µM, first compound 0.1 µM
[25] = second compound 0.316 µM, first compound 0.000316 µM
[26] = second compound 0.316 µM, first compound 0.001 µM
[27] = second compound 0.316 µM, first compound 0.00316 µM
[28] = second compound 0.316 µM, first compound 0.01 µM
[29] = second compound 0.316 µM, first compound 0.0316 µM
[30] = second compound 0.316 µM, first compound 0.1 µM
[31] = second compound 1 µM, first compound 0.000316 µM
[32] = second compound 1 µM, first compound 0.001 µM
[33] = second compound 1 µM, first compound 0.00316 µM
[34] = second compound 1 µM, first compound 0.01 µM
[35] = second compound 1 µM, first compound 0.0316 µM
[36] = second compound 1 µM, first compound 0.1 µM
[37] = second compound 0.0316 µM, first compound 0.316 µM
[38] = second compound 0.0316 µM, first compound 1 µM
[39] = second compound 0.0316 µM, first compound 3.16 µM
[40] = second compound 0.0316 µM, first compound 10 µM
[41] = second compound 0.1 µM, first compound 0.316 µM
[42] = second compound 0.1 µM, first compound 1 µM
[43] = second compound 0.1 µM, first compound 3.16 µM
[44] = second compound 0.1 µM, first compound 10 µM
[45] = second compound 0.316 µM, first compound 0.316 µM
[46] = second compound 0.316 µM, first compound 1 µM
[47] = second compound 0.316 µM, first compound 3.16 µM
[48] = second compound 0.316 µM, first compound 10 µM
[49] = second compound 1 µM, first compound 0.316 µM
[50] = second compound 1 µM, first compound 1 µM
[51] = second compound 1 µM, first compound 3.16 µM
[52] = second compound 1 µM, first compound 10 µM
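Further: spheroids exposed to agents for seven days before the viability read.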

`CC(=O)c1c(C)c2cnc(Nc3ccc(N4CCNCC4)cn3)nc2n(C2CCCC2)c1=O` + COc1c(OCCCN2CCOCC2)ccc2c3n(c(=NC(=O)c4cnc(N)nc4)nc12)CCN3 was tested, and the pIC50 (second compound 0.00316 µM) was less than 7.00, the pIC50 (second compound 0.01 µM) was less than 7.00 and the pIC50 (second compound 0.0316 µM) was less than 7.00. It also gave a pIC50 (second compound 0.1 µM) of less than 7.00, a pIC50 (second compound 0.316 µM) greater than 9.50 and a pIC50 (second compound 1 µM) greater than 9.50. It also gave a viability, T/C [1] of 91%, a viability, T/C [2] of 98.3% and a viability, T/C [3] of 103%. It also gave a viability, T/C [4] of 101%, a viability, T/C [5] of 88.8% and a viability, T/C [6] of 94.7%. It also gave a viability, T/C [7] of 93.4%, a viability, T/C [8] of 95.9% and a viability, T/C [9] of 90.7%. For the same compound, the viability, T/C [10] was 99.3%, the viability, T/C [11] was 101% and the viability, T/C [12] was 116%. The viability, T/C [13] was 103%, the viability, T/C [14] was 100% and the viability, T/C [15] was 99.8%. It also gave a viability, T/C [16] of 99.4%, a viability, T/C [17] of 97.9% and a viability, T/C [18] of 90.7%. The viability, T/C [19] was 93.1%, the viability, T/C [20] was 92.7% and the viability, T/C [21] was 96.1%. For the same compound, the viability, T/C [22] was 85.4%, the viability, T/C [23] was 79.4% and the viability, T/C [24] was 58.7%. It also gave a viability, T/C [25] of 48.4%, a viability, T/C [26] of 36.3% and a viability, T/C [27] of 40.9%. For the same compound, the viability, T/C [28] was 31.2%, the viability, T/C [29] was 37.7% and the viability, T/C [30] was 23.4%. The viability, T/C [31] was 28.6%, the viability, T/C [32] was 20.7% and the viability, T/C [33] was 18.9%. It also gave a viability, T/C [34] of 16.8%, a viability, T/C [35] of 18.8% and a viability, T/C [36] of 18.4%.
With `CC(C)n1nc(-c2ccc3oc(N)nc3c2)c2c(N)ncnc21` + CC(Nc1ccc2c(c1)OCCn1cc(N3C(=O)OCC3C(F)F)nc1-2)C(N)=O the pIC50 (second compound 0.00316 µM) was less than 7.00, the pIC50 (second compound 0.01 µM) was less than 7.00 and the pIC50 (second compound 0.0316 µM) was less than 7.00. For the same compound, the pIC50 (second compound 0.1 µM) was less than 7.00, the pIC50 (second compound 0.316 µM) was less than 7.00 and the pIC50 (second compound 1 µM) was 7.03. The viability, T/C [1] was 92.2%, the viability, T/C [2] was 90.5% and the viability, T/C [3] was 87.2%. The viability, T/C [4] was 114%, the viability, T/C [5] was 99.2% and the viability, T/C [6] was 91.5%. It also gave a viability, T/C [7] of 93%, a viability, T/C [8] of 102% and a viability, T/C [9] of 111%. For the same compound, the viability, T/C [10] was 112%, the viability, T/C [11] was 113% and the viability, T/C [12] was 102%. The viability, T/C [13] was 100%, the viability, T/C [14] was 95.3% and the viability, T/C [15] was 103%. The viability, T/C [16] was 118%, the viability, T/C [17] was 108% and the viability, T/C [18] was 82.1%. For the same compound, the viability, T/C [19] was 110%, the viability, T/C [20] was 95.3% and the viability, T/C [21] was 100%. It also gave a viability, T/C [22] of 110%, a viability, T/C [23] of 117% and a viability, T/C [24] of 81.5%. The viability, T/C [25] was 96.6%, the viability, T/C [26] was 95.8% and the viability, T/C [27] was 98.8%. The viability, T/C [28] was 110%, the viability, T/C [29] was 94.6% and the viability, T/C [30] was 76.2%. It also gave a viability, T/C [31] of 102%, a viability, T/C [32] of 118% and a viability, T/C [33] of 106%. The viability, T/C [34] was 96.7%, the viability, T/C [35] was 86.6% and the viability, T/C [36] was 47.4%.
For `C=CC(=O)N1CCN(c2nc(=O)n(-c3c(C)ccnc3C(C)C)c3nc(-c4c(O)cccc4F)c(F)cc23)C(C)C1` (stereo not drawn) + Cc1nc(NC(=O)N2CCCC2C(N)=O)sc1-c1ccnc(C(C)(C)C(F)(F)F)c1, the pIC50 (second compound 0.0316 µM) was less than 5.00, the pIC50 (second compound 0.1 µM) was less than 5.00 and the pIC50 (second compound 0.316 µM) was less than 5.00. It also gave a pIC50 (second compound 1 µM) of less than 5.00, a pIC50 (second compound 3.16 µM) of less than 5.00 and a pIC50 (second compound 10 µM) of less than 5.00. It also gave a viability, T/C [17] of 104%, a viability, T/C [18] of 92.1% and a viability, T/C [37] of 99.2%. The viability, T/C [38] was 88.3%, the viability, T/C [39] was 113% and the viability, T/C [40] was 95.2%. It also gave a viability, T/C [23] of 100%, a viability, T/C [24] of 92.7% and a viability, T/C [41] of 91.6%. It also gave a viability, T/C [42] of 98.8%, a viability, T/C [43] of 103% and a viability, T/C [44] of 90.3%. The viability, T/C [29] was 108%, the viability, T/C [30] was 103% and the viability, T/C [45] was 111%. It also gave a viability, T/C [46] of 101%, a viability, T/C [47] of 104% and a viability, T/C [48] of 86.5%. The viability, T/C [35] was 97.5%, the viability, T/C [36] was 93.3% and the viability, T/C [49] was 109%. For the same compound, the viability, T/C [50] was 99.1%, the viability, T/C [51] was 110% and the viability, T/C [52] was 84.9%. For the same compound, the viability, T/C (second compound 3.16 µM, first compound 0.0316 µM) was 98.6%, the viability, T/C (second compound 3.16 µM, first compound 0.1 µM) was 98.3% and the viability, T/C (second compound 3.16 µM, first compound 0.316 µM) was 102%. The viability, T/C (second compound 3.16 µM, first compound 1 µM) was 89.5%, the viability, T/C (second compound 3.16 µM, first compound 3.16 µM) was 95.8% and the viability, T/C (second compound 3.16 µM, first compound 10 µM) was 80.2%. For the same compound, the viability, T/C (second compound 10 µM, first compound 0.0316 µM) was 94.4%, the viability, T/C (second compound 10 µM, first compound 0.1 µM) was 86.7% and the viability, T/C (second compound 10 µM, first compound 0.316 µM) was 98.7%. For the same compound, the viability, T/C (second compound 10 µM, first compound 1 µM) was 91.1%, the viability, T/C (second compound 10 µM, first compound 3.16 µM) was 95.9% and the viability, T/C (second compound 10 µM, first compound 10 µM) was 83.6%.
With `CNC(=O)c1ccc(N2C(=S)N(c3ccc(C#N)c(C(F)(F)F)c3)C(=O)C2(C)C)cc1F` + COc1c(OCCCN2CCOCC2)ccc2c3n(c(=NC(=O)c4cnc(N)nc4)nc12)CCN3 the pIC50 (second compound 0.00316 µM) was less than 5.00, the pIC50 (second compound 0.01 µM) was less than 5.00 and the pIC50 (second compound 0.0316 µM) was less than 5.00. It also gave a pIC50 (second compound 0.1 µM) of less than 5.00, a pIC50 (second compound 0.316 µM) greater than 7.50 and a pIC50 (second compound 1 µM) greater than 7.50. The viability, T/C [5] was 92.8%, the viability, T/C [6] was 92.1% and the viability, T/C (second compound 0.00316 µM, first compound 0.316 µM) was 95.9%. It also gave a viability, T/C (second compound 0.00316 µM, first compound 1 µM) of 92%, a viability, T/C (second compound 0.00316 µM, first compound 3.16 µM) of 99% and a viability, T/C (second compound 0.00316 µM, first compound 10 µM) of 93%. For the same compound, the viability, T/C [11] was 98.7%, the viability, T/C [12] was 108% and the viability, T/C (second compound 0.01 µM, first compound 0.316 µM) was 103%. For the same compound, the viability, T/C (second compound 0.01 µM, first compound 1 µM) was 93.3%, the viability, T/C (second compound 0.01 µM, first compound 3.16 µM) was 111% and the viability, T/C (second compound 0.01 µM, first compound 10 µM) was 87%. It also gave a viability, T/C [17] of 103%, a viability, T/C [18] of 98.1% and a viability, T/C [37] of 99.8%. For the same compound, the viability, T/C [38] was 105%, the viability, T/C [39] was 96.5% and the viability, T/C [40] was 89.1%. It also gave a viability, T/C [23] of 97.4%, a viability, T/C [24] of 89.6% and a viability, T/C [41] of 91.5%. It also gave a viability, T/C [42] of 107%, a viability, T/C [43] of 84.6% and a viability, T/C [44] of 67%. For the same compound, the viability, T/C [29] was 50.8%, the viability, T/C [30] was 45.3% and the viability, T/C [45] was 38.1%. For the same compound, the viability, T/C [46] was 43.1%, the viability, T/C [47] was 41.1% and the viability, T/C [48] was 29.2%. It also gave a viability, T/C [35] of 21.8%, a viability, T/C [36] of 22.5% and a viability, T/C [49] of 22.8%. The viability, T/C [50] was 22%, the viability, T/C [51] was 25.6% and the viability, T/C [52] was 14.4%.
